In one series the test system is rat hepatocytes. In words: Metabolic stability of JP-1366 in rat hepatocytes. The settings on record: rat hepatocytes. The series is classed as in vitro ADME. As to the method:
(§1) According to the manufacturer’s protocol, cryopreserved human, dog, monkey, mouse, and rat hepatocytes were purified and recovered. […] The metabolic reaction in each sample well was quenched by adding 120 μL of ice-cold acetonitrile.
(§2) Log-transformed relative responses of JP-1366 were plotted against incubation time, thereby obtaining the elimination slope (k) from the linear regression analysis. […] (1) t1 /2(min)=ln2/kelimination slope (2) Clint(mL/min/kg)=ln2/t1/2×mL incubation/hepatocyte (10^6 cells)×B×10^6 cells/g liver×A g liver/kg BW (3) Clhep(mL/min/kg)=Qh×Clint/Qh+Clint (4) HER=Clhep/Qh
(§3) Here, A means the liver weight parameters and has values of 25.7, 32, 30, 87.5, and 40; B means the cell number parameters and has values of 139, 215, 120, 135, and 117; Qh represents hepatic blood flow and has values of 20.7, 30.9, 43.6, 90, and 55.2 mL/min/kg for humans, dogs, monkeys, mice, and rats, respectively. Hepatic extraction ratios (HERs) of ≤0.25, 0.25–0.75, and ≥0.75 were regarded as low, moderate, and high, respectively.

Series [1] in a line: Metabolic stability of JP-1366 in rat hepatocytes. In kind it is in vitro ADME. The following applies: cryopreserved rat hepatocytes. As to the method:
as §1, §2, §3

The next series deals with GERD lesion. The settings on record: rats, compared with vonoprazan; cited from earlier work.
In a further series the test system is human hepatocytes. Kind of series: Metabolic stability of JP-1366 in human hepatocytes. The series is classed as in vitro ADME. The following applies: human hepatocytes. As to the method: as §1, §2, §3
Assay in series [2]: as above
In kind it is in vitro ADME. The following applies: cryopreserved human hepatocytes. As to the method:
as §1, §2, §3

The subject of a further series is monkey hepatocytes. In words: Metabolic stability of JP-1366 in monkey hepatocytes. The settings on record: monkey hepatocytes. In kind it is in vitro ADME. As to the method: as §1, §2, §3
Assay in series [3]: as above
In kind it is in vitro ADME. The following applies: cryopreserved monkey hepatocytes. As to the method:
as §1, §2, §3

The next series has as its target MT1 (Homo sapiens, UniProt P48039). In words: BioPrint profiling, MT1. The settings on record: BioPrint profiling (Eurofins CEREP). An excerpt:
However, the involvement of multiple metabolizing enzymes such as CYP1A2, CYP2C9/19, CYP1A2, and CYP2D6 with a minor contribution in the formation of M1, M6, M19, and M21 and the involvement of UGT1A1 and UGT2B7 in the formation of M15 from M1 and the formation of 23 metabolites might reduce the risk of drug–drug interaction potential mediated by a single metabolizing enzyme and a main metabolite. Additionally, it may reduce the intersubject variability caused by genetic variations in these metabolizing enzymes.

The next series concerns Cl^- channel. Kind of series: BioPrint profiling, Cl- channel. The settings on record: BioPrint profiling (Eurofins CEREP).
Series [4] concerns the target T1, human cDNA-expressed CYP1A2 (Homo sapiens, UniProt P05177).
T1 construct: purchased Corning Life Sciences
T1 sequence (P05177 1-516): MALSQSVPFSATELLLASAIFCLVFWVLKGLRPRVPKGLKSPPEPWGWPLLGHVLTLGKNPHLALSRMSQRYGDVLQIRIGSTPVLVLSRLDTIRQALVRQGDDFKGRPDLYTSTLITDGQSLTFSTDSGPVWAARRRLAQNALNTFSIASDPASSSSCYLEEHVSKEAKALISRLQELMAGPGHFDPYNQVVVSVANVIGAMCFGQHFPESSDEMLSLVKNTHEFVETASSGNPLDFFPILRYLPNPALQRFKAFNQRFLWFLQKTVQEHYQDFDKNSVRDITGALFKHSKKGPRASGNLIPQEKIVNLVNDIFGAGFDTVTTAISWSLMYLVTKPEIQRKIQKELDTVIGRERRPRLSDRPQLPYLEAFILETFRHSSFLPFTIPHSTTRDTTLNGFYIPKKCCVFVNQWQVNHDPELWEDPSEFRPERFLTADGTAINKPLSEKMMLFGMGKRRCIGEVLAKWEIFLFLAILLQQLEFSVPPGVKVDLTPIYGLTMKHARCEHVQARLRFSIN
In words: Enzyme kinetics of JP-1366 metabolism in cDNA-expressed CYP1A2. The series is classed as in vitro ADME. As to the method:
(§4) The reaction was initiated by adding 5 μL of NADPH-generating system in triplicate, and the mixture was further incubated for 30 min at 37 °C in a shaking water bath.
(§5) The concentrations of the metabolites were quantitated, and their formation rates (pmol/mg protein/min) were calculated by dividing the amounts of metabolites formed from the incubation with human liver microsomes and human cDNA-expressed CYP or UGT enzymes by the incubation time.

The target of the next series is H^+/K^+-ATPase (Homo sapiens, UniProt P20648). The following applies: read-out: IC50 for the H^+/K^+-ATPase inhibition; cited from earlier work.
H^+/K^+-ATPase, sequence (P20648 whole entry): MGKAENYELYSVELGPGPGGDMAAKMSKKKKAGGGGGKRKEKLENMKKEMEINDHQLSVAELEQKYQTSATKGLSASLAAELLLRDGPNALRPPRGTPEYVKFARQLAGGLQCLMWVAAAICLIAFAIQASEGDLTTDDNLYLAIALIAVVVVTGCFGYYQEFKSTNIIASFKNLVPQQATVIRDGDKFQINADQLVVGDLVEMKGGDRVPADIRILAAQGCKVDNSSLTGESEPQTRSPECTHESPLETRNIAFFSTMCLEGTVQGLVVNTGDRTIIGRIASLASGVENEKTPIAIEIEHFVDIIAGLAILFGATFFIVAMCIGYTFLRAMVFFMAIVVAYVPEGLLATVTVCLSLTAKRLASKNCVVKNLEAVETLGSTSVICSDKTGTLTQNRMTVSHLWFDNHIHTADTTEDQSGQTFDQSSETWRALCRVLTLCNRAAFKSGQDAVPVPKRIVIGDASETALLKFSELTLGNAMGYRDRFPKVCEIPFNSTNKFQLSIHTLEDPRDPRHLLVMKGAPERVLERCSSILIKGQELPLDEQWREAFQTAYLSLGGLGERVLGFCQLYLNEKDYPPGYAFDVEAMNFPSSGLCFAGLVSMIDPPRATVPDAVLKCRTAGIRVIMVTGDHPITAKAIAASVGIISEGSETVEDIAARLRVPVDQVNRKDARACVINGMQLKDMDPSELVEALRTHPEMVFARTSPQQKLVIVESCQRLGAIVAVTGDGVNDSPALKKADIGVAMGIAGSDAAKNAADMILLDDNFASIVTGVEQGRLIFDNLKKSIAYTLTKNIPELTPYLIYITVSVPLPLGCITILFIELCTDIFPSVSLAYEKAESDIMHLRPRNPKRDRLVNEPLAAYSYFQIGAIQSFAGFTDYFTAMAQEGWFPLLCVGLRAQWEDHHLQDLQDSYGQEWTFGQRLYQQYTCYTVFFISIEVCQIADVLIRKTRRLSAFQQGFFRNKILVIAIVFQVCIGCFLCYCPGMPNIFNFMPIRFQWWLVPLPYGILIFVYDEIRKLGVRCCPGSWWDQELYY
H^+/K^+-ATPase, sequence (P51164 whole entry partner): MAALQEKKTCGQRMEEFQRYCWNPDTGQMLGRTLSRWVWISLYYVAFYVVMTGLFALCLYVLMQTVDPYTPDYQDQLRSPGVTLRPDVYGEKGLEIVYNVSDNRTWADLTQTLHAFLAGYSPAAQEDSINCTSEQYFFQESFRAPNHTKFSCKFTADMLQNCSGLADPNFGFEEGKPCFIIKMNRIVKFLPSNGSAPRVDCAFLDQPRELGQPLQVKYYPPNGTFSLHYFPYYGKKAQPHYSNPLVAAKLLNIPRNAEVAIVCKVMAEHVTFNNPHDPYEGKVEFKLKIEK
A further series relates to CYP3A4/5. In words: Combined contribution of CYP3A4/5 to formation of major JP-1366 metabolites. In kind it is in vitro ADME, human. The following applies: sum of CYP3A4 and CYP3A5 contributions. As to the method:
as §4, §5

Series [5] concerns the target T2, human cDNA-expressed CYP2C19 (Homo sapiens, UniProt P33261).
T2 construct: purchased Corning Life Sciences
Kind of series: Enzyme kinetics of JP-1366 metabolism in cDNA-expressed CYP2C19. In kind it is in vitro ADME. As to the method:
as §4, §5

Where [6] appears, read: formation of the labelled metabolite from JP-1366, CYP1A2.
Where [7] appears, read: formation of the labelled metabolite from JP-1366, CYP2C19.

T2 sequence (P33261 whole entry): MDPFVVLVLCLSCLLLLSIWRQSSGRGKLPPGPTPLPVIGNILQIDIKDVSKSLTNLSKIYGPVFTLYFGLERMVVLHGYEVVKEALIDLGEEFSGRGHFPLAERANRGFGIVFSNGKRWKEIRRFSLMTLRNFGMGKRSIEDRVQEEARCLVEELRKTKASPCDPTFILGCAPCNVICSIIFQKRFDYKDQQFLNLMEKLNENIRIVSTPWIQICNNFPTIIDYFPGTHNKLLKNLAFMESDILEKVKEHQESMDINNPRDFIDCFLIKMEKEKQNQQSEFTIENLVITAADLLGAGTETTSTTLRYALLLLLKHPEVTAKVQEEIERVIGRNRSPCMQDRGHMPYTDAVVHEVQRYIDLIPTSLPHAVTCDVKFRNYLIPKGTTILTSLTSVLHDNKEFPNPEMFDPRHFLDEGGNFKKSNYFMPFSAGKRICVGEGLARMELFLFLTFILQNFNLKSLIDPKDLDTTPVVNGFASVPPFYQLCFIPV
MT1, sequence (P48039 whole entry): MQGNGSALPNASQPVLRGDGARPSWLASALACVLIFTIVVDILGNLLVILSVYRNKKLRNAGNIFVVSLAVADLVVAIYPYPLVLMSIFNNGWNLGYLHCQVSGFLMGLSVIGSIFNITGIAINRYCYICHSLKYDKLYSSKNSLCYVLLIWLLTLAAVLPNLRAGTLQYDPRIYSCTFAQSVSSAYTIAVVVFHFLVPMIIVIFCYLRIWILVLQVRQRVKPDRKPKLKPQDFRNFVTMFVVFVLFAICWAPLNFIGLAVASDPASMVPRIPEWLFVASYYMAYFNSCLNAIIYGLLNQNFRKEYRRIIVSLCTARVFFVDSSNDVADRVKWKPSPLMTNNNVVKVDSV

As usually defined, the CLint scaled is the capacity of the preparation to metabolise the compound, expressed as a volume cleared per time. As usually defined, the half-life is the time in which the quantity being followed falls by half. On to `Cc1cccc(C)c1CNc1cc(C(=O)N2CCC2)cn2c(C)c(C)nc12` [JP-1366, 1-azetidinyl(8-(((2,6-dimethylphenyl)methyl)amino)-2,3-dimethylimidazo(1,2-a)pyridin-6-yl)methanone], for which the figures for the CLhep with rat hepatocytes, in the series with human hepatocytes and with monkey hepatocytes were 39.4 mL/min/kg, 16.3 mL/min/kg and 31.1 mL/min/kg, respectively. In addition, the HER worked out at 0.71 in the series with rat hepatocytes, 0.79 with human hepatocytes and 0.72 with monkey hepatocytes. The CLint scaled at 1 µM in series [1] (rat hepatocytes, scaled with physiological parameters) amounted to 138 mL/min/kg; in series [2] (human hepatocytes, scaled with physiological parameters), 77.5 mL/min/kg; in [3] (monkey hepatocytes, scaled with physiological parameters) it was 110 mL/min/kg. Further, the half-life at 1 µM was 47.1 min in [1] (rat), 63.9 min in series [2] (human) and 48.4 min in [3] (monkey). For the same compound, in the series with GERD lesion, the “GERD lesion inhibition rates” value was “greater GERD lesion inhibition rates”. In addition, the IC50 stood at 870 nM against MT1 and 910 nM in the series on Cl^- channel.
For the compound `Cc1cccc(CO)c1CNc1cc(C(=O)N2CCC2)cn2c(C)c(C)nc12` [M1, azetidin-1-yl(8-((2-(hydroxymethyl)-6-methyl-benzyl)amino)-2,3-dimethylimidazo[1,2-a]pyridin-6-yl)methanone], the CLint was 0.0014 μL/min/pmol CYP in [4] (setting [6]) and 0.068 μL/min/pmol CYP in series [5] (setting [7]). In addition, the “n (Hill coefficient)” value in series [4] (setting [6]) was 0.6; in series [5] (setting [7]) it was 1.6. The “Contribution (%)” value in [4] (relative contribution of CYP1A2 to formation of the labelled metabolite) and in series [5] (relative contribution of CYP2C19 to formation of the labelled metabolite) was 0.1% each time. The IC50 on H^+/K^+-ATPase is 66.5 nM. For the same compound, the “contribution of CYP3A4/5 to formation of the metabolite from JP-1366” value in the series with CYP3A4/5 turned out to be 85.9%.

The record behind these values is paper PMC11207335, “In Vitro Metabolism and Transport Characteristics of Zastaprazan” (Pharmaceutics, 2024).
